Among the test systems are OVCAR-8 ovarian; HS 578T breast; HOP-92 NSCLC; UACC-62 melanoma; DU-145 prostate; SNB-75 CNS; SF-539 CNS; MDA-MB-435; K-562 leukemia; KM12 colon.
Assay in all cases: inhibition of tumour cell growth, NCI panel, 48 h

Experimental findings from PubChem BioAssay (NCI) are described below.

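Briefly, cells in 96-well plates were exposed to five compound concentrations for 48 h, and endpoints were estimated by linear interpolation. GI50 = concentration required for 50% inhibition of growth. TGI: total growth inhibition.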 Bounds are passed on as bounds.

Take `O=C(C[n+]1ccc2ccccc2c1)c1ccc2ccc3ccccc3c2c1`: the TGI in the assay with OVCAR-8 ovarian stood at 19.8 µM; with HS 578T breast, 35.2 µM; in the assay with HOP-92 NSCLC it was 18.8 µM; in the assay on UACC-62 melanoma, 9.72 µM; in the assay with DU-145 prostate it was 21.3 µM; in the assay on SNB-75 CNS it was 18.5 µM. The TGI with SF-539 CNS was 14.2 µM; in the assay on MDA-MB-435, 7.75 µM; in the assay on K-562 leukemia, 1.99 µM; in the assay on KM12 colon, 11.5 µM.

Regarding `CCOC(=O)C(NC(=O)c1ccco1)(Nc1nc2ccc(OCC)cc2s1)C(F)(F)F` (stereo not given), the TGI with OVCAR-8 ovarian is above 100 µM; with HS 578T breast, above 100 µM; in the assay on HOP-92 NSCLC, 47.5 µM; in the assay on UACC-62 melanoma, above 100 µM; in the assay with DU-145 prostate it was above 100 µM; in the assay with SNB-75 CNS it was 70.7 µM. In addition, the TGI in the assay on SF-539 CNS is above 100 µM; with MDA-MB-435, 80.2 µM; in the assay with K-562 leukemia, above 100 µM; in the assay with KM12 colon, 98.3 µM.

In the case of `COc1ccc(C(=O)/C=C/c2cccc([N+](=O)[O-])c2)c(OC)c1`, the GI50 in the assay on OVCAR-8 ovarian was 1780 nM; in the assay on HS 578T breast it was 3.85 µM; with HOP-92 NSCLC, 3.92 µM; in the assay with UACC-62 melanoma, 1140 nM; in the assay on DU-145 prostate, 1750 nM; in the assay with SNB-75 CNS it was 1610 nM. Moreover, the GI50 in the assay with SF-539 CNS is 1180 nM; in the assay on MDA-MB-435, 1760 nM; in the assay with K-562 leukemia it was 999 nM; with KM12 colon, 1610 nM. The TGI in the assay on OVCAR-8 ovarian was above 50 µM; in the assay with HS 578T breast, above 50 µM; in the assay on HOP-92 NSCLC it was above 50 µM; in the assay with UACC-62 melanoma it was 2.79 µM; in the assay with DU-145 prostate, above 50 µM; in the assay with SNB-75 CNS it was above 50 µM. In addition, the TGI with SF-539 CNS is 3.09 µM; in the assay with MDA-MB-435, above 50 µM; with K-562 leukemia, 3.08 µM; with KM12 colon it was 7.65 µM.

With `O=C(c1cccs1)N(C(=S)OC12CC3CC(CC(C3)C1)C2)c1ccccc1`, the TGI in the assay with OVCAR-8 ovarian is above 100 µM; with HS 578T breast, above 100 µM; with HOP-92 NSCLC, above 100 µM; in the assay with UACC-62 melanoma, 84.8 µM; in the assay on DU-145 prostate, above 100 µM; in the assay on SNB-75 CNS, above 100 µM. The TGI in the assay with SF-539 CNS, in the assay on MDA-MB-435, with K-562 leukemia and in the assay with KM12 colon was above 100 µM throughout.

Consider `CC12CC3OC(=O)C1COC14OC5(C2C1=O)C(O)(CCC1C4CC(O)C2(O)CC=CC(=O)C12C)C(=O)OC35C` (stereo not given), for which the TGI in the assay with OVCAR-8 ovarian, with HS 578T breast, in the assay with HOP-92 NSCLC, in the assay with UACC-62 melanoma, in the assay on DU-145 prostate and in the assay with SNB-75 CNS was above 100 µM each time. Besides, the TGI with SF-539 CNS, in the assay on MDA-MB-435, with K-562 leukemia and in the assay with KM12 colon was above 100 µM throughout.

`COc1cccc2c1Cc1cc(-c3ccccc3)[n+](C)n1-2`: the TGI in the assay on OVCAR-8 ovarian is above 100 µM; in the assay on HS 578T breast, above 100 µM; in the assay with HOP-92 NSCLC, 66.4 µM; with UACC-62 melanoma it was 30.3 µM; in the assay with DU-145 prostate, above 100 µM; in the assay with SNB-75 CNS, 58.6 µM. Moreover, the TGI was 44.1 µM in the assay on SF-539 CNS, 25.5 µM in the assay with MDA-MB-435, above 100 µM in the assay with K-562 leukemia and 34.3 µM in the assay with KM12 colon.
